The nature of series [1]: Whole Blood Stability Assay (mouse whole blood). It is filed as in vitro ADME. The following applies: CD-1 mouse blood, EDTA-K2, final conc. 2 μM, 37° C., 0-120 min; for half-life at 2 μM: male, fresh whole blood, read-out: Mouse Whole Blood Stability t1/2. As for the experimental part:
Whole Blood Stability Assay
This Example illustrates that exemplary compounds of the present invention is cleavage in mouse whole blood.
(§1) Test Compounds and Stock Solutions: Stock Conc. 10 mM; Final Conc. 2 μM
(§2) Test Compound and Control Working Solution Preparation:
• Intermediate solution: 5 μL of compound stock solution (10 mM in dimethyl sulfoxide (DMSO)) were diluted with […] of DMSO (intermediate solution concentration: 1 mM, 100% DMSO) • Propantheline bromide (control) intermediate solution: 5 μL of propantheline stock solution (10 mM in ultra-pure water) were diluted with 45 μL of ultra-pure water (intermediate solution concentration: 1 mM) • Working solution 1: 20 μL of test compound intermediate solution (1 mM) were diluted with 180 μL of 45% ACN/H2O (working solution concentration: […], 40.5% ACN, 10% DMSO) • Working solution 2: 20 μL of control intermediate solution (1 mM) were diluted with 180 μL of 45% ACN/H2O (working solution concentration: 100 μM, 40.5% ACN, 10% DMSO) • Species/Matrix: CD-1 Mouse Blood • No. of Individuals: n>3 Male • Anticoagulant Used: EDTA-K2
• The fresh blood was collected on the day of experiment and pre-warmed in a water bath at 37° C. • Using an Apricot automation workstation, 98 μL/well of blank blood were added to all 96-well reaction plates (Blank, T0, T10, T30, T60 and T120). • An Apricot automation workstation was used to add 2 μL/well of working solution (100 μM) to all reaction plates except Blank (T0, T10, T30, T60 and T120). • All reaction plates containing mixtures of compound and blood were incubated at 37° C. in water bath. • The reaction plates were incubated at 37° C., and timer was started. • At the end of incubation, mixed 100 μL water with 100 μL spiked blood samples, then added 800 μL of stop solution (200 ng/mL tolbutamide and 200 ng/mL labetalol in ACN) to precipitate protein. Mixed thoroughly. • Each plate was sealed and shaken for 20 minutes. • After shaking, each plate was centrifuged at 4000 rpm and 4° C. for 20 minutes. • After centrifugation, an Apricot automation workstation was used to transfer 150 μL of supernatant from each reaction plate to its corresponding bioanalysis plate. • Each bioanalysis plate was submitted to LC-MS/MS analysis.
• The % remaining of test compound after incubation in blood was calculated using following equation:
(§3) [formula] • where PAR is the peak area ratio of analyte versus internal standard (IS) • The appointed incubation time points are TO (0 min), Tn (n=0, 10, 30, 60 and 120 min)

The nature of series [2]: Plasma Stability Assay (human plasma). The following applies: both sexes; pooled human plasma, heparin, final conc. 2 μM, 37° C., 0-120 min; read-out: Human Plasma Stability t1/2. It is filed as in vitro ADME. The protocol:
This Example illustrates that exemplary compounds of the present invention is cleavage in human plasma.
as §1, §2
• Test compound intermediate solution: 10 μL of compound stock solution (10 mM in dimethyl sulfoxide (DMSO)) were diluted with 90 μL of DMSO (intermediate solution concentration: 1 mM, 100% DMSO) • Control intermediate solution: 10 μL of control stock solution (10 mM in dimethyl sulfoxide (DMSO)) were diluted with 90 μL of DMSO (intermediate solution concentration: 1 mM, 100% DMSO) • Species/Matrix: Human Plasma • No. of Individuals: 3 Male & 3 Female • Anticoagulant Used: Heparin
• The pooled frozen plasma was thawed in a water bath at 37° C. prior to experiment. Plasma was centrifuged at 4000 rpm for 5 min and the clots were removed if any. • Using an Apricot automation workstation, 98 μL/well of blank plasma were added to all 96-well reaction plates. (Blank, T0, T10, T30, T60 and T120) • An Apricot automation workstation was used to add 2 μL/well of working solution (100 μM) to all reaction plates except Blank. (T0, T10, T30, T60 and T120) • All reaction plates containing mixtures of compound and plasma were incubated at 37° C. in water bath. • The reaction plates were incubated at 37° C., and timer was started. • At the end of incubation, added 500 μL of stop solution (200 ng/mL tolbutamide and 200 ng/mL labetalol in ACN) to precipitate protein. Mixed thoroughly. • Each plate was sealed and shaken for 20 minutes. • After shaking, each plate was centrifuged at 4000 rpm and 4° C. for 20 minutes • After centrifugation, an Apricot automation workstation was used to transfer 50 μL supernatant into 100 μL HPLC water. • Each bioanalysis plate was sealed and shaken for 10 minutes prior to LC-MS/MS analysis Data Analysis • The % remaining of test compound after incubation in blood was calculated using following equation:
as §3

11 molecules from patent US20250376483A1, “PRODRUGS OF PAN-KRAS INHIBITORS” (Mirati Therapeutics, Inc., priority 2022, published 2025) can be followed below.

With `CCCC(=O)Oc1cc(-c2ncc3c(N4C[C@@H]5C[C@H](C4)[C@H](O)C5)nc(OC[C@@]45CCCN4C[C@H](F)C5)nc3c2F)c2c(CC)c(F)ccc2c1` [Example 11, 5-ethyl-6-fluoro-4-(8-fluoro-2-(((2R,7aS)-2-fluorotetrahydro-1H-pyrrolizin-7a(5H)-yl)methoxy)-4-((1R,5R,6R)-6-hydroxy-3-azabicyclo[3.2.1]octan-3-yl)pyrido[4,3-d]pyrimidin-7-yl)naphthalen-2-yl butyrate], the half-life at 2 μM was less than 5 min in series [1] and 46 min in series [2].
As for `CCOC(=O)Oc1cc(-c2ncc3c(N4C[C@@H]5C[C@H](C4)[C@H](O)C5)nc(OC[C@@]45CCCN4C[C@H](F)C5)nc3c2F)c2c(CC)c(F)ccc2c1` [Example 12, ethyl (5-ethyl-6-fluoro-4-(8-fluoro-2-(((2R,7aS)-2-fluorotetrahydro-1H-pyrrolizin-7a(5H)-yl)methoxy)-4-((1R,5R,6R)-6-hydroxy-3-azabicyclo[3.2.1]octan-3-yl)pyrido[4,3-d]pyrimidin-7-yl)naphthalen-2-yl) carbonate], the half-life at 2 μM in series [1] is less than 5 min; in series [2], 26 min.
As for `CCc1c(F)ccc2cc(OC(=O)C3CCC3)cc(-c3ncc4c(N5C[C@@H]6C[C@H](C5)[C@H](O)C6)nc(OC[C@@]56CCCN5C[C@H](F)C6)nc4c3F)c12` [Example 13, 5-ethyl-6-fluoro-4-(8-fluoro-2-(((2R,7aS)-2-fluorotetrahydro-1H-pyrrolizin-7a(5H)-yl)methoxy)-4-((1R,5R,6R)-6-hydroxy-3-azabicyclo[3.2.1]octan-3-yl)pyrido[4,3-d]pyrimidin-7-yl)naphthalen-2-yl cyclobutanecarboxylate], the half-life at 2 μM in series [1] stood at 6 min; in series [2], 16 min.
On to `CCc1c(F)ccc2cc(OC(=O)OC(C)C)cc(-c3ncc4c(N5C[C@@H]6C[C@H](C5)[C@H](O)C6)nc(OC[C@@]56CCCN5C[C@H](F)C6)nc4c3F)c12` [Example 15, 5-ethyl-6-fluoro-4-(8-fluoro-2-(((2R,7aS)-2-fluorotetrahydro-1H-pyrrolizin-7a(5H)-yl)methoxy)-4-((1R,5R,6R)-6-hydroxy-3-azabicyclo[3.2.1]octan-3-yl)pyrido[4,3-d]pyrimidin-7-yl)naphthalen-2-yl isopropyl carbonate], for which the results for the half-life at 2 μM in series [1] and in series [2] were less than 5 min and 146 min, respectively.
For `CCc1c(F)ccc2cc(OC(=O)C3CCCC3)cc(-c3ncc4c(N5C[C@@H]6C[C@H](C5)[C@H](O)C6)nc(OC[C@@]56CCCN5C[C@H](F)C6)nc4c3F)c12` [Example 17, 5-ethyl-6-fluoro-4-(8-fluoro-2-(((2R,7aS)-2-fluorotetrahydro-1H-pyrrolizin-7a(5H)-yl)methoxy)-4-((1R,5R,6R)-6-hydroxy-3-azabicyclo[3.2.1]octan-3-yl)pyrido[4,3-d]pyrimidin-7-yl)naphthalen-2-yl cyclopentanecarboxylate], the “Mouse Whole Blood Stability t1/2” value in series [1] is recorded as 1 min. For the same molecule, the half-life at 2 μM in series [2] was determined as 41 min.
As for `CCCCCC(=O)Oc1cc(-c2ncc3c(N4C[C@@H]5C[C@H](C4)[C@H](O)C5)nc(OC[C@@]45CCCN4C[C@H](F)C5)nc3c2F)c2c(CC)c(F)ccc2c1` [Example 18, 5-ethyl-6-fluoro-4-(8-fluoro-2-(((2R,7aS)-2-fluorotetrahydro-1H-pyrrolizin-7a(5H)-yl)methoxy)-4-((1R,5R,6R)-6-hydroxy-3-azabicyclo[3.2.1]octan-3-yl)pyrido[4,3-d]pyrimidin-7-yl)naphthalen-2-yl hexanoate], the half-life at 2 μM in series [1] was less than 5 min; in series [2] it was 44 min.
The like results for `CCc1c(F)ccc2cc(OC(=O)OC(C)(C)C)cc(-c3ncc4c(N5C[C@@H]6C[C@H](C5)[C@H](O)C6)nc(OC[C@@]56CCCN5C[C@H](F)C6)nc4c3F)c12` [Example 19, tert-butyl (5-ethyl-6-fluoro-4-(8-fluoro-2-(((2R,7aS)-2-fluorotetrahydro-1H-pyrrolizin-7a(5H)-yl)methoxy)-4-((1R,5R,6R)-6-hydroxy-3-azabicyclo[3.2.1]octan-3-yl)pyrido[4,3-d]pyrimidin-7-yl)naphthalen-2-yl) carbonate] were, in that order, 3 min and greater than 289 min.
As for `CCc1c(F)ccc2cc(OCOC(=O)N(C)C)cc(-c3ncc4c(N5C[C@@H]6C[C@H](C5)[C@H](O)C6)nc(OC[C@@]56CCCN5C[C@H](F)C6)nc4c3F)c12` [Example 20, ((5-ethyl-6-fluoro-4-(8-fluoro-2-(((2R,7aS)-2-fluorotetrahydro-1H-pyrrolizin-7a(5H)-yl)methoxy)-4-((1R,5R,6R)-6-hydroxy-3-azabicyclo[3.2.1]octan-3-yl)pyrido[4,3-d]pyrimidin-7-yl)naphthalen-2-yl)oxy)methyl dimethylcarbamate], the half-life at 2 μM in series [1] and in series [2] was greater than 289 min throughout.
Turning to `CCc1c(F)ccc2cc(OC(=O)C3CCCCC3)cc(-c3ncc4c(N5C[C@@H]6C[C@H](C5)[C@H](O)C6)nc(OC[C@@]56CCCN5C[C@H](F)C6)nc4c3F)c12` [Example 21, 5-ethyl-6-fluoro-4-(8-fluoro-2-(((2R,7aS)-2-fluorotetrahydro-1H-pyrrolizin-7a(5H)-yl)methoxy)-4-((1R,5R,6R)-6-hydroxy-3-azabicyclo[3.2.1]octan-3-yl)pyrido[4,3-d]pyrimidin-7-yl)naphthalen-2-yl cyclohexanecarboxylate], in series [1], the “Mouse Whole Blood Stability t1/2” value was 1 min. Further, the half-life at 2 μM in series [2] was determined as 41 min.
Consider `CCc1c(F)ccc2cc(OC(C)OC(=O)N(C)C)cc(-c3ncc4c(N5C[C@@H]6C[C@H](C5)[C@H](O)C6)nc(OC[C@@]56CCCN5C[C@H](F)C6)nc4c3F)c12` (stereo partly drawn) [Example 22, 1-((5-ethyl-6-fluoro-4-(8-fluoro-2-(((2R,7aS)-2-fluorotetrahydro-1H-pyrrolizin-7a(5H)-yl)methoxy)-4-((1R,5R,6R)-6-hydroxy-3-azabicyclo[3.2.1]octan-3-yl)pyrido[4,3-d]pyrimidin-7-yl)naphthalen-2-yl)oxy)ethyl dimethylcarbamate], for which the half-life at 2 μM in series [1] and in series [2] was greater than 289 min in each case.
For the molecule `CCCCCCCC(=O)Oc1cc(-c2ncc3c(N4C[C@@H]5C[C@H](C4)[C@H](O)C5)nc(OC[C@@]45CCCN4C[C@H](F)C5)nc3c2F)c2c(CC)c(F)ccc2c1` [Example 24, 5-ethyl-6-fluoro-4-(8-fluoro-2-(((2R,7aS)-2-fluorotetrahydro-1H-pyrrolizin-7a(5H)-yl)methoxy)-4-((1R,5R,6R)-6-hydroxy-3-azabicyclo[3.2.1]octan-3-yl)pyrido[4,3-d]pyrimidin-7-yl)naphthalen-2-yl octanoate], the “Mouse Whole Blood Stability t1/2” value in series [1] was 1 min. Moreover, the half-life at 2 μM in series [2] amounted to 65 min.
